SMILES strings stand for the structures.

The subject of the first test is NO production by RAW264.7 cell. In words: NO production-inhibiting effect in RAW264.7 cells (nitrite ion by DAN fluorescence). Format: cell-based, mouse. The conditions noted are these: Mus musculus, RAW264.7, RAW264.7; LPS 5 ng/ml + interferon gamma 1 U/ml; nitrite ion in culture supernatant after overnight incubation. How it is done: Mouse macrophage cell line RAW264.7 was used as an iNOS-inducible cell and a test compound was examined for its % inhibition of NO production. The test compound was dissolved at 10 mM in N,N-dimethylformamide and diluted with an RPMI-1640 medium at the concentration of 0.1 mM. The concentration was further adjusted using the medium so that a final concentration ranging from 10 μM to 10 nM could be obtained by a 10-fold serial dilution and the test compound was added to a culture medium. On the day before the experiment, the cell was adjusted at 5×10^5/ml in an RPMI-1640 medium supplemented with 10% inactivated fetal calf serum and inoculated to a 96-well microplate at 1×10^5 cells/0.2 ml per well. After incubating at 37° C. under an atmosphere of 5% CO2/95% air overnight, the test compound adjusted as described above was added and then LPS and interferon gamma were added at the final concentrations of 5 ng/ml and 1 U/ml, respectively. After further incubating overnight, culture supernatants were examined for the concentration of nitrite ion (stable metabolite of NO) which was used as an index for the NO production. The nitrite ion concentration was determined by adding 25 μl of 20 μg/ml of 2,3-diaminonaphthalene (DAN) to 50 μl of the culture supernatant, followed by incubating at room temperature for 10 minutes, followed by adding 25 μl of 0.5 N NaOH, followed by determining a fluorescence at 450 nm (excitation wavelength: 365 nm). An IC50 represents the concentration of the test compound which inhibits 50% of the NO production.
As for `CCOC(=O)C1=CCCCC1S(=O)(=O)N(C)c1ccc(Cl)cc1F` (stereo not drawn) [Compound 2, ethyl 6-[N-(4-chloro-2-fluorophenyl)-N-methylsulfamoyl]-1-cyclohexene-1-carboxylate], the IC50 was 1.1 µM. The same measure, in the same setting: the value for `CCOC(=O)C1=CCCCC1S(=O)(=O)Nc1c(C(C)C)cccc1C(C)C` (stereo not drawn) [Compound 4, ethyl 6-[N-(2,6-diisopropylphenyl)sulfamoyl]-1-cyclohexene-1-carboxylate] was 2.6 µM. On the same count and under the same terms, the same measure for `CCOC(=O)C1=CCCCC1S(=O)(=O)Nc1ccccc1` (stereo not drawn) [Compound 6, ethyl 6-(N-phenylsulfamoyl)-1-cyclohexene-1-carboxylate]: 0.59 µM; for `CCOC(=O)C1=C(S(=O)(=O)Nc2ccccc2)CCCC1` [Compound 7, ethyl 2-(N-phenylsulfamoyl)-1-cyclohexene-1-carboxylate]: 4 µM. For `CCOC(=O)C1=C(S(=O)(=O)Nc2ccc(OC)cc2)CCCC1` [Compound 8, ethyl 2-[N-(4-methoxyphenyl)sulfamoyl]-1-cyclohexene-1-carboxylate], the IC50 was found to be 4.8 µM. On the same count and under the same terms, the same measure for `CCOC(=O)C1=C(S(=O)(=O)Nc2ccc(Cl)cc2F)CCCC1` [Compound 9, ethyl 2-[N-(4-chloro-2-fluorophenyl)sulfamoyl]-1-cyclohexene-1-carboxylate]: 4.1 µM. Still for that read-out and setting: the same measure for `CCOC(=O)C1=CCCCC1S(=O)(=O)Nc1ccccc1F` (stereo not drawn) [Compound 10, ethyl 6-[N-(2-fluorophenyl)sulfamoyl]-1-cyclohexene-1-carboxylate]: 0.058 µM. On the same count and under the same terms, the value for `CCOC(=O)C1=CCCCC1S(=O)(=O)Nc1ccc(F)cc1` (stereo not drawn) [Compound 12, ethyl 6-[N-(4-fluorophenyl)sulfamoyl)-1-cyclohexene-1-carboxylate] was 0.18 µM; that for `CCOC(=O)C1=CCCCC1S(=O)(=O)Nc1c(F)cccc1F` (stereo not drawn) [Compound 13, ethyl 6-[N-(2,6-difluorophenyl)sulfamoyl]-1-cyclohexene-1-carboxylate] was 0.46 µM. Regarding `CCOC(=O)C1=CCCCC1S(=O)(=O)Nc1cccc(F)c1F` (stereo not drawn) [Compound 14, ethyl 6-[N-(2,3-difluorophenyl)sulfamoyl]-1-cyclohexene-1-carboxylate], the IC50 amounted to 0.59 µM. The same measure, in the same setting: the same measure for `CCOC(=O)C1=CCCCC1S(=O)(=O)Nc1cc(F)ccc1F` (stereo not drawn) [Compound 15, ethyl 6-[N-(2,5-difluorophenyl)sulfamoyl]-1-cyclohexene-1-carboxylate]: 0.28 µM; for `CCOC(=O)C1=CCCCC1S(=O)(=O)Nc1ccc(F)c(F)c1` (stereo not drawn) [Compound 16, ethyl 6-[N-(3,4-difluorophenyl)sulfamoyl]-1-cyclohexene-1-carboxylate]: 0.18 µM; for `CCOC(=O)C1=CCCCC1S(=O)(=O)Nc1cc(F)cc(F)c1` (stereo not drawn) [Compound 17, ethyl 6-[N-(3,5-difluorophenyl)sulfamoyl]-1-cyclohexene-1-carboxylate]: 2.6 µM. For the compound `CCOC(=O)C1=C(S(=O)(=O)Nc2ccc(F)cc2)CCCC1` [Compound 18, ethyl 2-[N-(4-fluorophenyl)sulfamoyl)-1-cyclohexene-1-carboxylate], the IC50 amounted to 4.4 µM. On the same count and under the same terms, the same measure for `CCOC(=O)C1=CCCCC1S(=O)(=O)Nc1ccccc1C(=O)OCC` (stereo not drawn) [Compound 21, ethyl 6-[N-(2-ethoxycarbonylphenyl)sulfamoyl]-1-cyclohexene-1-carboxylate]: 2.4 µM; for `COC(=O)C1=CCCCC1S(=O)(=O)Nc1ccc(F)cc1F` (stereo not drawn) [Compound 22, methyl 6-[N-(2,4-difluorophenyl)sulfamoyl]-1-cyclohexene-1-carboxylate]: 0.18 µM; for `CCCOC(=O)C1=CCCCC1S(=O)(=O)Nc1ccc(F)cc1F` (stereo not drawn) [Compound 23, propyl 6-[N-(2,4-difluorophenyl)sulfamoyl]-1-cyclohexene-1-carboxylate]: 0.027 µM. On the same count and under the same terms, the same measure for `COC(=O)C1=CCCCC1S(=O)(=O)Nc1ccc(Cl)cc1F` (stereo not drawn) [Compound 24, methyl 6-[N-(4-chloro-2-fluorophenyl)sulfamoyl]-1-cyclohexene-1-carboxylate]: 0.78 µM. Same read-out and setting: the value for `CC(C)OC(=O)C1=CCCCC1S(=O)(=O)Nc1ccc(F)cc1F` (stereo not drawn) [Compound 25, isopropyl 6-[N-(2,4-difluorophenyl)sulfamoyl]-1-cyclohexene-1-carboxylate] was 0.32 µM. `CCOC(=O)C1=CCCCC1S(=O)(=O)Nc1ccccc1C(=O)OC` (stereo not drawn) [Compound 26, ethyl 6-[N-(2-methoxycarbonylphenyl)sulfamoyl]-1-cyclohexene-1-carboxylate]: the IC50 was 3.3 µM.

In the case of `CCOC(=O)C1=CCCCC1S(=O)(=O)Nc1ccc(C)cc1F` (stereo not drawn) [Compound 27, ethyl 6-[N-(2-fluoro-4-methylphenyl)sulfamoyl]-1-cyclohexene-1-carboxylate], the IC50 came to 0.25 µM.

Take `CCOC(=O)C1=CCCCC1S(=O)(=O)Nc1ccccc1Cl` (stereo not drawn) [Compound 28, ethyl 6-[N-(2-chlorophenyl)sulfamoyl]-1-cyclohexene-1-carboxylate]: the IC50 came out at 0.029 µM. Still for that read-out and setting: the same measure for `CCOC(=O)C1=CCCCC1S(=O)(=O)Nc1ccc(F)cc1Cl` (stereo not drawn) [Compound 29, ethyl 6-[N-(2-chloro-4-fluorophenyl)sulfamoyl]-1-cyclohexene-1-carboxylate]: 0.0093 µM; for `CCOC(=O)C1=CCCCC1S(=O)(=O)Nc1ccc(F)c(F)c1F` (stereo not drawn) [Compound 31, ethyl 6-[N-(2,3,4-trifluorophenyl)sulfamoyl]-1-cyclohexene-1-carboxylate]: 0.23 µM. On the same count and under the same terms, the same measure for `CC(C)COC(=O)C1=CCCCC1S(=O)(=O)Nc1ccc(F)cc1F` (stereo not drawn) [Compound 32, isobutyl 6-[N-(2,4-difluorophenyl)sulfamoyl]-1-cyclohexene-1-carboxylate]: 0.23 µM; for `CCCCOC(=O)C1=CCCCC1S(=O)(=O)Nc1ccc(F)cc1F` (stereo not drawn) [Compound 33, butyl 6-[N-(2,4-difluorophenyl)sulfamoyl]-1-cyclohexene-1-carboxylate]: 0.26 µM. The same measure, in the same setting: the same measure for `CCOC(=O)C1=CCCCC1S(=O)(=O)Nc1ccc(Br)cc1F` (stereo not drawn) [Compound 34, ethyl 6-[N-(4-bromo-2-fluorophenyl)sulfamoyl]-1-cyclohexene-1-carboxylate]: 0.35 µM; for `CCOC(=O)C1=CCCCC1S(=O)(=O)Nc1ccc(Cl)cc1Cl` (stereo not drawn) [Compound 35, ethyl 6-[N-(2,4-dichlorophenyl)sulfamoyl]-1-cyclohexene-1-carboxylate]: 0.082 µM; for `CCOC(=O)C1=CCCCC1S(=O)(=O)Nc1cccc(Cl)c1Cl` (stereo not drawn) [Compound 38, ethyl 6-[N-(2,3-dichlorophenyl)sulfamoyl]-1-cyclohexene-1-carboxylate]: 0.041 µM. As for `CCOC(=O)C1=CCCCC1S(=O)(=O)Nc1ccc(-n2nccn2)cc1` (stereo not drawn) [Compound 40, ethyl 6-[N-[4-(2H-1,2,3-triazol-2-yl)phenyl)sulfamoyl]-1-cyclohexene-1-carboxylate], the IC50 came out at 2.5 µM. The same measure, in the same setting: the same measure for `CCOC(=O)C1=CCCCC1S(=O)(=O)Nc1cc(Cl)ccc1Cl` (stereo not drawn) [Compound 41, ethyl 6-[N-(2,5-dichlorophenyl)sulfamoyl]-1-cyclohexene-1-carboxylate]: 0.24 µM. As to `CCOC(=O)C1=CCCCC1S(=O)(=O)Nc1ccccc1OC(F)(F)F` (stereo not drawn) [Compound 42, ethyl 6-[N-(2-trifluoromethoxyphenyl)sulfamoyl]-1-cyclohexene-1-carboxylate], the IC50 is 1.1 µM. The same measure, in the same setting: the value for `CCOC(=O)C1=CCCCC1S(=O)(=O)Nc1cc(F)c(F)cc1F` (stereo not drawn) [Compound 43, ethyl 6-[N-(2,4,5-trifluorophenyl)sulfamoyl]-1-cyclohexene-1-carboxylate] was 0.073 µM; that for `CCOC(=O)C1=CCCCC1S(=O)(=O)Nc1ccc(-n2ncnn2)cc1` (stereo not drawn) [Compound 44, ethyl 6-[N-[4-(2H-tetrazol-2-yl)phenyl)sulfamoyl]-1-cyclohexene-1-carboxylate] was 3.7 µM.

The same test, now with this note: Mus musculus; RAW264.7; LPS 5 ng/ml + interferon gamma 1 U/ml; nitrite ion in culture supernatant after overnight incubation.
As to `CCOC(=O)C1=CCCCC1S(=O)(=O)Nc1ccc([N+](=O)[O-])cc1` (stereo not drawn) [Compound 5, ethyl 6-[N-(4-nitrophenyl)sulfamoyl]-1-cyclohexene-1-carboxylate], the IC50 was determined as 3.7 µM. For `CCOC(=O)C1=CCCCC1S(=O)(=O)Nc1ccc(Cl)cc1` (stereo not drawn) [Compound 30, ethyl 6-[N-(4-chlorophenyl)sulfamoyl]-1-cyclohexene-1-carboxylate], the IC50 stood at 0.54 µM. In the case of `CCOC(=O)C1=CCCCC1S(=O)(=O)Nc1cccc(Cl)c1` (stereo not drawn) [Compound 37, ethyl 6-[N-(3-chlorophenyl)sulfamoyl]-1-cyclohexene-1carboxylate], the IC50 was 0.13 µM. On the same count and under the same terms, the value for `CCOC(=O)C1=CCCCC1S(=O)(=O)Nc1ccccc1CC` (stereo not drawn) [Compound 39, ethyl 6-[N-(2-ethylphenyl)sulfamoyl]-1-cyclohexene-1-carboxylate] was 0.32 µM.

Staying with this test, now noted: RAW264.7; LPS 5 ng/ml + interferon gamma 1 U/ml; nitrite ion in culture supernatant after overnight incubation.
As to `CCOC(=O)C1=CCCCC1S(=O)(=O)Nc1ccc(F)cc1F` (stereo not drawn) [Compound 19, 1-ethyl 6-[N-(2,4-difluorophenyl)sulfamoyl]-1-cyclohexene-1-carboxylate], the IC50 is 2 µM.

Broadly, the IC50 is the midpoint of a concentration-inhibition curve.

These data come from patent publication US6495604B1, “Cycloalkene derivatives, process for producing the same, and use” (Takeda Chemical Industries, Ltd., priority 1998, dated 2002).
